Test: Label-independent detection (LID) of binding to immobilized biotin on a grating-coupled waveguide microplate
Source text: A label-independent detection (LID) system developed by Corning Inc. was used to evaluate interactions between unlabeled streptavidin and immobilized biotin. This LID system is comprised of a multi-well optical reader and a disposable microplate (e.g., a 96- or 384-well microplate). Each well of the microplate contains a grating-coupled waveguide for evanescent field sensing. The sensing surface has a surface chemistry layer allowing for attachment of molecules that contain primary amine groups (e.g., biotin-amine). As streptavidin or other analytes of interest bind to the sensing surface, the refractive index at the surface is changed. An optical mode propagates and senses the refractive index changes close to the sensing surface. Only light that is “resonant” is strongly reflected, and the exact wavelength of the resonance is a sensitive function of the refractive index at the surface of the sensor. In a typical operation, a baseline read of the microplate is first established. Addition of a binding partner results in a change in refractive index at the sensing surface, which is indicated as picometer (pm) shift from baseline. Each microplate is read on the optical reader before, during, and after the addition of the binding partner. Resonant wavelength shift (“Response (pm)”) is plotted as a function of time. Cell lysate was prepared by diluting a 2 mg/ml stock to 100 μg/ml final concentration. A Corning 96-well clear polystyrene non-treated flat bottom plate (Corning catalog # 3370) was used for source plate preparation. To facilitate efficient pickup of the sample solutions by a multi-channel robotic pipettor in the LID instrument, each well of the source plate contained extra solution. A solution of 1× phosphate buffered saline (PBS; 1 mM KH2PO4, 10 mM Na2HPO4, 137 mM NaCl, and 2.7 mM KCl) was used as a first addition step for baseline measure. […] Interactions between purified streptavidin and immobilized biotin were first evaluated (FIG. 2). […] PBS was added to establish a baseline read (before point A). […]

Molecule	binding to the target area (ethanolamine in borate buffer, between points B and C, corrected response curve, FIG. 3)	effect of post wash on binding of streptavidin to biotin (PBS wash after point C, corrected response curve, FIG. 3)	bulk index shift (Response (pm)) due to binding to the immobilized biotin (purified streptavidin 200 nM in 1x PBS, between points A and B, FIG. 2)
NCCO [Ethanolamine, ethanolamine]	did not appear to bind to the target area	–	–
streptavidin	–	did not disrupt the binding	increase in the bulk index
